Experimental data from US9187411B2, “Leukotriene B4 antagonist compound” (Eli Lilly and Company, priority 2012, dated 2015).
Like-named read-outs stand apart in the source and are kept apart here.

Biological target: T1, hBLT2 (Homo sapiens, UniProt Q9NPC1)
T1 construct: expressed in transfected cells; membrane preparation
T1 sequence (Q9NPC1 1-358): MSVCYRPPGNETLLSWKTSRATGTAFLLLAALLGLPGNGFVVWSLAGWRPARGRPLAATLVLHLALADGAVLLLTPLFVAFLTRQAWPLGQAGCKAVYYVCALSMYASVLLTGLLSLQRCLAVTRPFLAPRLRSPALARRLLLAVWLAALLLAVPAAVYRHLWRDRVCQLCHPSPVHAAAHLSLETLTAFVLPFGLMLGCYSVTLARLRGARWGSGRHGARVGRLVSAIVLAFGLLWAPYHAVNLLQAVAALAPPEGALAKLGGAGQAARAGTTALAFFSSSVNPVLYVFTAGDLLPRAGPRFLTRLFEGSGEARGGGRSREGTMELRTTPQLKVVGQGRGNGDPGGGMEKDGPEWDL
Experiment: [3H]-LTB4 binding assay in hBLT2 containing membranes
Conditions: [3H]-LTB4 displacement, hBLT2/CHO-K1 membranes
Experimental: [^3H]-LTB4 and known BLT1 and BLT2 antagonists are used to generate LTB4 displacement curves and IC50 values for compounds of the present invention. Receptor inhibition by compounds of the present invention is determined relative to BLT1 inhibitor and BLT2 inhibitor reference molecules to obtain percent efficacies.
hBLT2 Test Compound Preparations: For hBLT2 assays, test compounds are prepared in DMSO to make up a 10 mM stock solution. The stock solution is initially diluted 1:10 in Buffer A (50 mM HEPES pH 7.4, 10 mM MgCl2, 10 mM NaCl, 10% glycerol (v/v), 1% BSA (w/v)), followed by 3× serial dilutions in Buffer B (50 mM HEPES pH 7.4, 10 mM MgCl2, 10 mM NaCl, 10% glycerol (v/v), 1% BSA (w/v), 10% DMSO (v/v)) creating a ten-point dilution curve. Final compound concentrations ranging from 300 μM to 15.2 nM are plated in a 96-well round-bottom plate for conducting the in vitro assays. […]
[^3H]-LTB4 (30 μL of 2.8 nM, PerkinElmer NET-852) is aliquoted into each well of a Falcon® 3072 microtiter plate (BD Biosciences). […] The plate is allowed to sit for 16 h and then read on a Packard Instrument Company Topcount® for 1 min. […]

CCCc1c(NC(=O)CC(C)(C)C(=O)[O-])cccc1OCCCOc1cc(O)c(-c2ccc(F)cc2)cc1CC.[Na+] [Example 2, Sodium 4-[[3-[3-[2-ethyl-4-(4-fluorophenyl)-5-hydroxy-phenoxy]propoxy]-2-propyl-phenyl]amino]-2,2-dimethyl-4-oxo-butanoate]
IC50 (read-out: absolute IC50): 16.5 µM | IC50 (read-out: relative IC50): 15.4 µM
